Article PMC8882856, “The affinity and selectivity of α‐adrenoceptor antagonists, antidepressants and antipsychotics for the human α2A, α2B, and α2C‐adrenoceptors and comparison with human α1 and β‐adrenoceptors” (Pharmacology Research & Perspectives, 2022)
Like-named read-outs stand apart in the source and are kept apart here. One block for each molecule: values may come before it.

Key:
[1] = target: human β2‐adrenoceptor (Homo sapiens, UniProt P07550); format: binding; settings: for IC50: read-out: IC50 (log) β2, IC50>top concentration used (converted)
[2] = target: T1, human β1‐adrenoceptor (Homo sapiens, UniProt P08588); settings: for Log KD β1: mean ± s.e.mean
[3] = target: T2, human α2A‐adrenoceptor (Homo sapiens, UniProt P08913); assay: ^3H‐RX821002 whole cell competition binding, CHO‐α2A cells
T2 sequence (P08913 1-465): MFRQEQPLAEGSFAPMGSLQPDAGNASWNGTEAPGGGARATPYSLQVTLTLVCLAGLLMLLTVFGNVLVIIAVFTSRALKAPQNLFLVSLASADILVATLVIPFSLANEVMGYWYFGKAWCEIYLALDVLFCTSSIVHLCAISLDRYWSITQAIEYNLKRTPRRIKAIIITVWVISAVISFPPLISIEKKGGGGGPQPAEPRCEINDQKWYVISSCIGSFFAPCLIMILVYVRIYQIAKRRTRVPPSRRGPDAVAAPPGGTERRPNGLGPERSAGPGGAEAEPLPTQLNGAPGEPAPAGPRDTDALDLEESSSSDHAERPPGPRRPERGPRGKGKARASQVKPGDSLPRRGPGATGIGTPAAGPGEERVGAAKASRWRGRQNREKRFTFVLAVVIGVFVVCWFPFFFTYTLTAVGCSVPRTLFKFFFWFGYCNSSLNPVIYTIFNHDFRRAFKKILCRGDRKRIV

[4] = target: T3, human α2B‐adrenoceptor (Homo sapiens, UniProt P18089); assay: ^3H‐RX821002 whole cell competition binding, CHO‐α2B cells
T3 sequence (P18089 1-450): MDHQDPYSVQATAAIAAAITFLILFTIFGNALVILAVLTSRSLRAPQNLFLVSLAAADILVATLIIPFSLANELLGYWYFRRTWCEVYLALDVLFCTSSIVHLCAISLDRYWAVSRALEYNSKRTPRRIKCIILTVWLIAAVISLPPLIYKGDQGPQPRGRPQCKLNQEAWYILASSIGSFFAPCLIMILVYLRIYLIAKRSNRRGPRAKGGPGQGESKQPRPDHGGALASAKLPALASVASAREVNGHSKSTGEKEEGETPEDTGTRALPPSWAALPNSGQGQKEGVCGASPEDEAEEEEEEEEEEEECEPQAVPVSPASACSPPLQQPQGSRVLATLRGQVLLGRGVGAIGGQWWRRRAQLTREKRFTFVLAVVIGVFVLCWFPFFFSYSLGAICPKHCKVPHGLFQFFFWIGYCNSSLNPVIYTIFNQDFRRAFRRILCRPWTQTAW

[5] = target: T4, human α2C‐adrenoceptor (Homo sapiens, UniProt P18825); assay: ^3H‐RX821002 whole cell competition binding, CHO‐α2C cells; settings: ^3H‐RX821002 as radioligand; living CHO cells; log values, mean ± s.e.mean
T4 sequence (P18825 1-462): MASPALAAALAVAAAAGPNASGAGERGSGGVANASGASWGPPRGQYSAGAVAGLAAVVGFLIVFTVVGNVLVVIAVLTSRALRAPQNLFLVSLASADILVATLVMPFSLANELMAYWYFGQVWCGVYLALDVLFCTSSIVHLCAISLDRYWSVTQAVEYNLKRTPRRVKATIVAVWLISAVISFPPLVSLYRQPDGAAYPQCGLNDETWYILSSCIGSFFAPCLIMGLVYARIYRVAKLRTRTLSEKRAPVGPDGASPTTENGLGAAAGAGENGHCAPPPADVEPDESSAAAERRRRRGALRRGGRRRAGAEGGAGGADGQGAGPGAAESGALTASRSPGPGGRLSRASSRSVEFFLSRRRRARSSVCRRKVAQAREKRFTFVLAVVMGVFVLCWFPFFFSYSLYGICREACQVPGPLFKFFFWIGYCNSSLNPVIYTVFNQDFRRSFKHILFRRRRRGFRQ

[6] = target: T2, human α2A‐adrenoceptor; assay: ^3H‐rauwolscine whole cell competition binding, CHO‐α2A cells
[7] = target: T3, human α2B‐adrenoceptor; assay: ^3H‐rauwolscine whole cell competition binding, CHO‐α2B cells
[8] = target: T4, human α2C‐adrenoceptor; assay: ^3H‐rauwolscine whole cell competition binding, CHO‐α2C cells
[9] = target: T2, human α2A‐adrenoceptor; assay: cell-based
[10] = target: T3, human α2B‐adrenoceptor; assay: cell-based
[11] = target: T4, human α2C‐adrenoceptor; assay: cell-based
[12] = target: T1, human β1‐adrenoceptor; assay: cell-based
[13] = target: human α2A‐adrenoceptors; settings: cited from earlier work
[14] = target: human α1A‐adrenoceptor; design: method as in PMID 32608144; settings: identical whole cell method; ref [33]; read-out: α1A‐adrenoceptor affinity; cited from earlier work
[15] = ^3H‐CGP12177 whole cell binding, log values, mean ± s.e.mean, ^app = apparent KD, 'no binding to' = log top concentration, read-out: Log KD β2 (converted)
[16] = this study, read-out: β2‐adrenoceptor affinity

T1 sequence (P08588 whole entry): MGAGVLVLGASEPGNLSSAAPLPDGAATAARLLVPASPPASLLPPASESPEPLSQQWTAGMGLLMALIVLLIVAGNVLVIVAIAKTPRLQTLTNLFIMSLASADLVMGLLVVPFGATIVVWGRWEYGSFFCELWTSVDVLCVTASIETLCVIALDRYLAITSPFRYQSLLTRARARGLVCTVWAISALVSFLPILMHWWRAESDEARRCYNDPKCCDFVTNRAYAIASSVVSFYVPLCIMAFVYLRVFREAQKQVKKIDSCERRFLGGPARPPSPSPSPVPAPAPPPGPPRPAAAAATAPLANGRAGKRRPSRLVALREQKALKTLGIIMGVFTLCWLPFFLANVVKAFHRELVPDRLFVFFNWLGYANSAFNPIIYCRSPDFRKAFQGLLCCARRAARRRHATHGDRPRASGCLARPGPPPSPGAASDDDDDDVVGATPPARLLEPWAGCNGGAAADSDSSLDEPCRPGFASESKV
human β2‐adrenoceptor, sequence (P07550 whole entry): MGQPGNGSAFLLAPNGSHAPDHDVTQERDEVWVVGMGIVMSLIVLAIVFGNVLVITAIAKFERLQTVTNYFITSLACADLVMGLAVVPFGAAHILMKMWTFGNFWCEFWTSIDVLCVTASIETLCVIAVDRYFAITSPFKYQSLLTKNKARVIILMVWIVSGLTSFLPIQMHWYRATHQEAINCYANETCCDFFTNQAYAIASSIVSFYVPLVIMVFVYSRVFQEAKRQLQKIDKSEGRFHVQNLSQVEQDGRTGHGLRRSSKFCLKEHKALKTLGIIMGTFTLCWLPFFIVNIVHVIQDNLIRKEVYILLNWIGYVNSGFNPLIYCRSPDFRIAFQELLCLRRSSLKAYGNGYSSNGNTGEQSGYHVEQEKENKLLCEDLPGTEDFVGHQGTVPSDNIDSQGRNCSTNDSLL

IC50 ([1]; ^3H‐CGP12177, log value): > 100 µM
Kd [9]: 13.8 µM
Kd [10]: 2.51 µM
Kd [11]: 5.25 µM
IC50 [12]: > 100 µM
Selectivity ratio α2A vs α2B (higher affinity for α2B) ([7]; ratio of KD values): 5.5
Selectivity ratio α2B vs α2C (higher affinity for α2B) ([7]; ratio of KD values): 2.1
Selectivity ratio α2A vs α2C (higher affinity for α2C) ([8]; ratio of KD values): 2.6
Compound: CN(CCCN1c2ccccc2CCc2ccccc21)CC(=O)c1ccc(Cl)cc1 [lofepramine]

IC50 ([1]; ^3H‐CGP12177, log value): > 31.6 µM
IC50 [12]: > 31.6 µM
Kd [8]: 0.014 µM
Compound: Cc1nc2n(c(=O)c1CCN1CCC(c3noc4cc(F)ccc34)CC1)CCCC2O (stereo not shown) [paliperidone]
Kd [14]: 0.004 µM

IC50 ([1]; ^3H‐CGP12177, log value): > 1000 µM
Kd [9]: 0.0525 µM
Kd [10]: 0.224 µM
Kd [11]: 0.00776 µM
IC50 [12]: > 1000 µM
Selectivity ratio α2A vs α2B (higher affinity for α2A) ([6]; ratio of KD values): 4.3
Selectivity ratio α2A vs α2C (higher affinity for α2C) ([8]; ratio of KD values): 6.8
Selectivity ratio α2B vs α2C (higher affinity for α2C) ([8]; ratio of KD values): 28.8
Compound: O=C1CCC(=O)N1C[C@H]1CC[C@H]2CN(c3ncccn3)CCN2C1 [sunepitron]

Kd [1, 16]: 0.178 µM
Kd [9]: 2.34 µM
Kd [10]: 4.79 µM
Kd [11]: 1.45 µM
Kd [12]: 0.427 µM
Selectivity ratio α2A vs α2B (higher affinity for α2A) ([6]; ratio of KD values): 2.0
Selectivity ratio α2A vs α2C (higher affinity for α2C) ([8]; ratio of KD values): 1.6
Selectivity ratio α2B vs α2C (higher affinity for α2C) ([8]; ratio of KD values): 3.3
Compound: Cc1ccc(Sc2ccccc2N2CCNCC2)c(C)c1 [vortioxetine]

Further lines, the molecule ahead of its results:

Compound: COc1cccc(OC)c1OCCNCC1COc2ccccc2O1 (stereo not shown) [WB4104]
IC50 (log) β2, IC50>top concentration used ([1]; ^3H‐CGP12177, log value): IC50>−4
IC50 (log) β1, IC50>top concentration used ([2]; ^3H‐CGP12177, log value): IC50>−4
Log KD α2A ([3]; ^3H‐RX821002 as radioligand, living CHO cells, log values, mean ± s.e.mean, ^app = apparent KD from extrapolated curve): −7.58 ± 0.05
Log KD α2B [4]: −6.88 ± 0.05
Log KD α2C [5]: −8.24 ± 0.13
Log KD α2A [6]: −7.55 ± 0.05
Selectivity ratio α2A vs α2B (higher affinity for α2A) [6]: 6.0
Log KD α2B [7]: −6.77 ± 0.05
Log KD α2C [8]: −8.17 ± 0.05
Selectivity ratio α2A vs α2C (higher affinity for α2C) [8]: 4.2
Selectivity ratio α2B vs α2C (higher affinity for α2C) [8]: 25.1

Compound: COc1ccccc1OCCNCC(O)COc1cccc2[nH]c3ccccc3c12 (stereo not shown) [carvedilol]
Kd [9]: 0.288 µM
Kd [3]: 0.263 µM

Compound: O=C(NC1CCN(CCc2c[nH]c3ccccc23)CC1)c1ccccc1 [indoramin]
Kd [1, 15]: 5.37 µM
Kd [9]: 7.41 µM
Kd [10]: 3.47 µM
Kd [11]: 1.58 µM
Kd [12]: 18.6 µM
Selectivity ratio α2A vs α2B (higher affinity for α2B) ([7]; ratio of KD values): 2.1
Selectivity ratio α2A vs α2C (higher affinity for α2C) ([8]; ratio of KD values): 4.7
Selectivity ratio α2B vs α2C (higher affinity for α2C) ([8]; ratio of KD values): 2.2

Compound: CN1CCN2c3ncccc3Cc3ccccc3C2C1 (stereo not shown) [mirtazepine]
Kd ([13]; ref [51], read-out: affinity at human α2A receptors): 0.079 to 0.126 µM

Compound: COc1cc2nc(N3CCN(C(=O)c4ccco4)CC3)nc(N)c2cc1OC [prazosin]
Kd [1, 15]: 7.94 µM
Log KD β1 ([2]; ^3H‐CGP12177 whole cell binding, log values, ^app = apparent KD, 'no binding to' = log top concentration): No binding to −4
Log KD β1 ([2]; given as log KD (negative values), 3H-CGP12177 whole cell binding, CHO cells): No binding to -4
Kd ([13]; ref [6], read-out: affinity at human α2A‐adrenoceptors): 16 µM
Kd ([13]; ref [21], [28], read-out: affinity at human α2A‐adrenoceptors): 0.3 µM

Compound: C[C@H](Cc1cc2c(c(C(N)=O)c1)N(CCCO)CC2)NCCOc1ccccc1OCC(F)(F)F [silodosin]
Kd [1, 16]: ~0.03 µM
Kd [14]: 0.00025 µM
Kd [9]: 3.24 µM
Kd [11]: 0.759 µM
IC50 [12]: > 10 µM
IC50 [7]: > 10 µM
